Laboratory results as given in ChEMBL document CHEMBL4184126, “Synthesis of novel 6-substituted amino-9-(β-d-ribofuranosyl)purine analogs and their bioactivities on human epithelial cancer cells” (Bioorg Med Chem Lett, 2018).
pIC50: −log10 of the molar value.

How the values were obtained:
Type in all cases: functional, cell-based
[1] = tested on: HCT-116; assay: Antiproliferative activity against human HCT116 cells after 72 hrs by SRB assay; settings: for pIC50: Homo sapiens, HCT-116, 72 h, read-out: IC50; for IC50: hct-116
[2] = tested on: Huh-7; assay: Antiproliferative activity against human HuH7 cells after 72 hrs by SRB assay; settings: for pIC50: Homo sapiens, Huh-7, 72 h, read-out: IC50; for IC50: huh-7
[3] = tested on: MCF7; assay: Antiproliferative activity against human MCF7 cells after 72 hrs by SRB assay; settings: for pIC50: Homo sapiens, MCF7, 72 h, read-out: IC50; for IC50: mcf7
[4] = tested on: HepG2; assay: Antiproliferative activity against human HepG2 cells after 72 hrs by SRB assay; settings: for pIC50: Homo sapiens, HepG2, 72 h, read-out: IC50
[5] = tested on: Mahlavu; assay: Antiproliferative activity against human Mahlavu cells after 72 hrs by SRB assay; settings: for pIC50: Homo sapiens, Mahlavu, 72 h, read-out: IC50
[6] = Antiproliferative activity against human FOCUS cells after 72 hrs by SRB assay; settings: for pIC50: Homo sapiens, 72 h, read-out: IC50

OC[C@H]1O[C@@H](n2cnc3c(N4CCN(c5ccc(C(F)(F)F)cc5)CC4)nc(Cl)nc32)[C@H](O)[C@@H]1O
pIC50 [1]: 6.00
pIC50 [2]: 5.70 to 6.00
pIC50 [3]: 5.40
pIC50 [4]: 5.52
pIC50 [5]: 5.52
pIC50 [6]: 6.00

OC[C@H]1O[C@@H](n2cnc3c(NCCNc4ccccc4)ncnc32)[C@H](O)[C@@H]1O
pIC50 [1]: 4.52
IC50 [2]: Not Active
pIC50 [3]: < 4.00

Nc1nc(N2CCN(c3ccccc3)CC2)c2ncn([C@@H]3O[C@H](CO)[C@@H](O)[C@H]3O)c2n1
pIC50 [1]: 4.52
pIC50 [2]: 4.30
IC50 [3]: Not Active
pIC50 [4]: < 4.00
IC50 ([5]; mahlavu): Not Active
pIC50 [6]: 5.05

O=c1[nH]cc(F)c(=O)[nH]1 [FLUOROURACIL]
pIC50 [1]: 5.40
pIC50 [2]: 4.52
pIC50 [3]: 5.52
pIC50 [5]: 5.00
pIC50 [6]: 5.40

Cc1ccc(N2CCN(c3nc(N)nc4c3ncn4[C@@H]3O[C@H](CO)[C@@H](O)[C@H]3O)CC2)cc1
IC50 [1]: Not Active
IC50 [2]: Not Active
IC50 [3]: Not Active

OC[C@H]1O[C@@H](n2cnc3c(Nc4ccc(N5CCOCC5)cc4)ncnc32)[C@H](O)[C@@H]1O
IC50 [1]: Not Active
IC50 [2]: Not Active
pIC50 [3]: 4.10

Nc1nc(N2CCN(c3ccc(F)cc3)CC2)c2ncn([C@@H]3O[C@H](CO)[C@@H](O)[C@H]3O)c2n1
pIC50 [1]: 4.52
pIC50 [2]: < 4.00
IC50 [3]: Not Active

Cc1ccc(N2CCN(c3ncnc4c3ncn4[C@@H]3O[C@H](CO)[C@@H](O)[C@H]3O)CC2)cc1
pIC50 [1]: 4.15
IC50 [2]: Not Active
pIC50 [3]: < 4.00
IC50 ([4]; hepg2): Not Active
pIC50 [5]: < 4.00
pIC50 [6]: 4.40

Nc1nc(Cl)nc2c1ncn2[C@H]1C[C@H](O)[C@@H](CO)O1 [CLADRIBINE]
pIC50 [1]: > 7.00
pIC50 [2]: 6.05 to 6.40
pIC50 [4]: 7.40
pIC50 [5]: 7.00
pIC50 [6]: 6.40

CSc1ccc(Nc2ncnc3c2ncn3[C@@H]2O[C@H](CO)[C@@H](O)[C@H]2O)cc1
pIC50 [1]: < 4.00
IC50 [2]: Not Active
IC50 [3]: Not Active

OC[C@H]1O[C@@H](n2cnc3c(NCCC4=CCCCC4)ncnc32)[C@H](O)[C@@H]1O
pIC50 [1]: 5.22
pIC50 [2]: < 4.00
pIC50 [3]: 5.52
pIC50 [4]: 6.00
pIC50 [5]: < 4.00
IC50 [6]: Not Active

OC[C@H]1O[C@@H](n2cnc3c(N4CCN(C5CCCCC5)CC4)ncnc32)[C@H](O)[C@@H]1O
pIC50 [1]: < 4.00
IC50 [2]: Not Active
IC50 [3]: Not Active

OC[C@H]1O[C@@H](n2cnc3c(N4CCN(c5ncccn5)CC4)ncnc32)[C@H](O)[C@@H]1O
pIC50 [1]: < 4.00
IC50 [2]: Not Active
pIC50 [3]: 4.40

CC(C)c1ccc(Nc2ncnc3c2ncn3[C@@H]2O[C@H](CO)[C@@H](O)[C@H]2O)cc1
pIC50 [1]: 5.00
pIC50 [2]: 4.22
pIC50 [3]: 4.30
pIC50 [4]: 4.40
pIC50 [5]: 4.40
pIC50 [6]: 4.70

Nc1nc(F)nc2c1ncn2[C@@H]1O[C@H](CO)[C@@H](O)[C@@H]1O [FLUDARABINE]
pIC50 [1]: 5.10
pIC50 [2]: 4.52
pIC50 [3]: 4.82
pIC50 [4]: 4.70
pIC50 [5]: 5.00
pIC50 [6]: 5.00

Nc1nc(N2CCN(C(c3ccccc3)c3ccccc3)CC2)c2ncn([C@@H]3O[C@H](CO)[C@@H](O)[C@H]3O)c2n1
pIC50 [1]: 4.70
pIC50 [2]: 5.00
pIC50 [3]: 4.70
pIC50 [4]: 4.70
pIC50 [5]: 5.15
pIC50 [6]: 4.70

Nc1nc(N2CCN(c3ncccn3)CC2)c2ncn([C@@H]3O[C@H](CO)[C@@H](O)[C@H]3O)c2n1
IC50 [1]: Not Active
IC50 [2]: Not Active
IC50 [3]: Not Active

CN(C)c1ccc(Nc2ncnc3c2ncn3[C@@H]2O[C@H](CO)[C@@H](O)[C@H]2O)cc1
pIC50 [1]: 4.40
pIC50 [2]: 4.10
pIC50 [3]: 4.52
pIC50 [4]: 4.52
pIC50 [5]: 4.52
pIC50 [6]: 4.70

OC[C@H]1O[C@@H](n2cnc3c(NCCC4=CCCCC4)nc(Cl)nc32)[C@H](O)[C@@H]1O
pIC50 [1]: 4.05
pIC50 [2]: 4.70
pIC50 [3]: 4.52
pIC50 [4]: 4.40
pIC50 [5]: 4.52
pIC50 [6]: 4.30
